Several values for one entry are separate records, joined by “and”; a condition that tells them apart may be missing. Equal entries are not always repeated. Where two headings read alike, the source gives them in different places.
Tested on: SARS-CoV-2 (Omicron variant, B.1.1.529.1/BA.1 sublineage)
Assay: microbe, parasite or virus in culture
Type: cell-based
Settings: for EC50 / EC90: Severe acute respiratory syndrome coronavirus 2, Vero C1008, 48 h; for EC90: read-out: 90% Reduction in Infectious Virus (EC90)
[1] = read-out: 50% Reduction in Infectious Virus (EC50)
[2] = read-out: 50% Reduction in Viral RNA Copy (EC50)
[3] = after starting administration and treatment

SMILES | 100% CPE Inhibitory Concentration (CPEIC100) | EC50 [1] [nM] | EC50 [2] [nM] | EC90 [nM] | Time to maximal effectiveness against the Omicron-variant particles [3] [h] | Time to maximal effectiveness against the Omicron-variant particles [h]
Nc1nnc(-c2cnc3cc(Cl)ccc3c2O)s1 [ChloViD2022, 3-(5-amino-1,3,4-thiadiazol-2-yl)-7-chloroquinolin-4-ol] | 1.09 µM and 1.09 ± 0.04 µM | 410 ± 20 | 440 ± 20 | 1530 ± 50 | 4 to 10 | 
Nc1nnc(CC(O)(Cc2nnc(N)s2)c2nnc(N)s2)s1 [CoViTris2022, 1,2,3-tris(5-amino-1,3,4-thiadiazol-2-yl)propan-2-ol] | 1.60 ± 0.06 µM | 690 ± 30 | 700 ± 40 | 2010 ± 70 |  | 4 to 10
CC(C)C(=O)OC[C@H]1O[C@@H](n2ccc(NO)nc2=O)[C@H](O)[C@@H]1O [Molnupiravir, molnupiravir, reference compound] | 6.25 µM and 6.25 ± 0.31 µM |  |  | 9160 ± 370 |  | 
Nc1nnc([C@H](O)[C@@H](O)c2nnc(N)s2)s1 [Taroxaz-26, (1R,2R)-1,2-bis(5-amino-1,3,4-thiadiazol-2-yl)ethane-1,2-diol] | 1.83 µM and 1.83 ± 0.07 µM | 730 ± 30 | 770 ± 40 | 2340 ± 80 | 4 to 10 | 

— publication PMC9870775, “Potent Dual Polymerase/Exonuclease Inhibitory Activities of Antioxidant Aminothiadiazoles Against the COVID-19 Omicron Virus: A Promising In Silico/In Vitro Repositioning Research Study” (Molecular Biotechnology, 2023)
